25 compounds from patent publication US20030134859A1 (SANKYO COMPANY, LIMITED, priority 2000, published 2003) can be followed below.

In the experiment the target is T1, human PPAR γ 2 (Homo sapiens, UniProt P37231).
T1 construct: expressed in transfected cells; host or cells: human osteosarcoma MG63, transiently co-transfected with pSG5-hPPARg and the reporter pGV-P2-PPRE
T1 sequence (P37231 1-505): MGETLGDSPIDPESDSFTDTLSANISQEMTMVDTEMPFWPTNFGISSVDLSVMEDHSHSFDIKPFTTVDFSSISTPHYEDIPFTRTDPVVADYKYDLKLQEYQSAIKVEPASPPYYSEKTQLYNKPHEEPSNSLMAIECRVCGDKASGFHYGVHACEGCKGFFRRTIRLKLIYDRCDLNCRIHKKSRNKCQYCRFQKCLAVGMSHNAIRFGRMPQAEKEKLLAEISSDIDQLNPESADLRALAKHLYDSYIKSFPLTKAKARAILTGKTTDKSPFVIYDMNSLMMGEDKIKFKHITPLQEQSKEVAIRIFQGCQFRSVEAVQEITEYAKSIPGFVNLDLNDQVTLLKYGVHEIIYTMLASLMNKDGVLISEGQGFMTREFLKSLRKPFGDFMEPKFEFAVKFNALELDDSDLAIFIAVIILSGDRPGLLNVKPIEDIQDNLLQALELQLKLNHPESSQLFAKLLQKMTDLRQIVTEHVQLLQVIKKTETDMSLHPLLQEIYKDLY
Nature of the experiment: Inhibitory activity against PPAR γ transcription in the presence of agonist compound A, luciferase reporter. The format is cell-based. The note with it: in the presence of 10 nM compound A (agonist); MG63 cells transfected with pSG5-hPPARg and pGV-P2-PPRE; 24 hr. A general note: A reporter such as luciferase makes a cellular process visible.

A word on the IC50: it is the concentration at which inhibition is half-maximal. In the case of `O=C(Nc1ccc(Cl)nn1)c1cc([N+](=O)[O-])ccc1Cl` [Example 89], the IC50 is 400 nM.
With `Cc1nnc(NS(=O)(=O)c2ccc(NC(=O)c3cc([N+](=O)[O-])ccc3Cl)cc2)s1` [Example 101, N-[4-[(5-Methyl-[1,3,4]thiadiazol-2-yl)aminosulfonyl]phenyl]-(2-chloro-5-nitrophenyl)carboxamide], the IC50 came to 61 nM.
As for `Cc1noc(NS(=O)(=O)c2ccc(NC(=O)c3cc([N+](=O)[O-])ccc3Cl)cc2)c1C` [Example 104, N-[4-[(3,4-Dimethylisoxazol-6-yl)aminosulfonyl]phenyl]-(2-chloro-5-nitrophenyl)carboxamide], the figure is 270 nM; as for `CC(=O)Nc1ccc(-c2ccc(NC(=O)c3cc([N+](=O)[O-])ccc3Cl)cc2)cc1` [Example 118, N-[4-(4-Acetylaminophenyl)phenyl]-(2-chloro-5-nitrophenyl)carboxamide], 8.6 nM; as for `O=C(Nc1ccc(-c2ccc(NC(=O)c3cc([N+](=O)[O-])ccc3Cl)cc2)cc1)c1ccccc1` [Example 120, N-[4-(4-Benzoylaminophenyl)phenyl]-(2-chloro-5-nitrophenyl)carboxamide], 13 nM.
For `O=C(Nc1ccc(-c2ccc(NC(=O)c3cc([N+](=O)[O-])ccc3Cl)cc2)cc1)c1cccnc1` [Example 124, N-[4-[4-(Pyridin-3-ylcarbonylamino)phenyl]phenyl]-(2-chloro-5-nitrophenyl)carboxamide], the IC50 was 8.1 nM.
`O=C(Nc1ccc(-c2ccc(NC(=O)c3cc([N+](=O)[O-])ccc3Cl)cc2)cc1)c1ccncc1` [Example 126, N-[4-[4-(Pyridin-4-ylcarbonylamino)phenyl]phenyl]-(2-chloro-5-nitrophenyl)carboxamide]: the IC50 is 14 nM.
On to `O=C(Nc1ccc(NS(=O)(=O)c2ccccc2)cc1)c1cc([N+](=O)[O-])ccc1Cl` [Example 127, N-(4-Benzenesulfonylaminophenyl)-(2-chloro-5-nitrophenyl)carboxamide], for which the IC50 turned out to be 11 nM.
As for `CCS(=O)(=O)Nc1ccc(-c2ccc(NC(=O)c3cc([N+](=O)[O-])ccc3Cl)cc2)cc1` [Example 130, N-[4-(4-Ethanesulfonylaminophenyl)phenyl]-(2-chloro-5-nitrophenyl)carboxamide], the figure is 11 nM; as for `O=C(Nc1cnccn1)c1cc([N+](=O)[O-])ccc1Cl` [Example 140, N-(Pyrazin-2-yl)-(2-chloro-5-nitrophenyl)carboxamide], 110 nM.
In the case of `O=C(Nc1ccc(S(=O)(=O)N2CCCCC2)cc1)c1cc([N+](=O)[O-])ccc1Cl` [Example 151, N-[4-(Piperidyisulfonyl)phenyl]-(2-chloro-5-nitrophenyl)carboxamide], the IC50 was 12 nM.
In the case of `O=C(Nc1ccc(S(=O)(=O)N2CCOCC2)cc1)c1cc([N+](=O)[O-])ccc1Cl` [Example 153, N-[4-(Morpholin-4-ylsulfonyl)phenyl]-(2-chloro-5-nitrophenyl)carboxamide], the IC50 is 49 nM.
Take `CC(=O)c1ccc(NC(=O)c2cc([N+](=O)[O-])ccc2Cl)cc1` [Example 155, N-(4-Acetylphenyl)-(2-chloro-5-nitrophenyl)carboxamide]: the IC50 was found to be 9.8 nM.
As for `CC(=O)c1cccc(NC(=O)c2cc([N+](=O)[O-])ccc2Cl)c1` [Example 156, N-(3-Acetylphenyl)-(2-chloro-5-nitrophenyl)carboxamide], the IC50 was 100 nM.
In the case of `O=C(Nc1ccc(C(=O)N2CCCCC2)cc1)c1cc([N+](=O)[O-])ccc1Cl` [Example 159, N-[4-(Piperidylcarbonyl)phenyl]-(2-chloro-5-nitrophenyl)carboxamide], the IC50 amounted to 11 nM.
Regarding `O=C(Nc1ccc(-n2ccnc2)cc1)c1cc([N+](=O)[O-])ccc1Cl` [Example 174, N-[4-(Imidazol-1-yl)phenyl]-(2-chloro-5-nitrophenyl)carboxamide], the IC50 was 9.4 nM.
In the case of `CC(C)(C)c1cc(NS(=O)(=O)c2ccc(NC(=O)c3cc([N+](=O)[O-])ccc3Cl)cc2)cc(C(C)(C)C)c1O` [Example 175, N-[4-[(3,5-di-tert-Butyl-4-hydroxyphenyl)aminosulfonyl]phenyl]-(2-chloro-5-nitrophenyl)carboxamide], the IC50 came out at 99 nM.
Consider `O=C(Nc1ccc(-c2ccc(N3CCCCC3)cc2)cc1)c1cc([N+](=O)[O-])ccc1Cl` [Example 177, N-[4-[4-(Piperidin-1-yl)phenyl]phenyl]-(2-chloro-5-nitrophenyl)carboxamide], for which the IC50 stood at 94 nM.
`CCCCCCN(CC)c1ccc(NC(=O)c2cc([N+](=O)[O-])ccc2Cl)cc1` [Example 188, N-[4-(N-Ethyl-N-hexylamino)phenyl]-(2-chloro-55 nitrophenyl)carboxamide]: the IC50 stood at 33 nM.
For `CC(C)(C)OC(=O)Nc1ccc(-c2csc(NC(=O)c3cc([N+](=O)[O-])ccc3Cl)n2)cc1` [Example 190, N-[4-(4-tert-Butoxycarbonylaminophenyl)thiazol-2-yl]-(2-chloro-5-nitrophenyl)carboxamide], the 50% inhibitory concentration (IC50) worked out at 36 nM.
For the compound `CCCN(CCC)c1ccc(-c2ccc(NC(=O)c3cc([N+](=O)[O-])ccc3Cl)cc2)cc1` [Example 194, N-[4-[4-(N,N-Dipropylamino)phenyl]phenyl]-(2-chloro-5-nitrophenyl)carboxamide], the IC50 was 330 nM.
For “N-[3-(Pyrrolidinylsulfonyl)phenyl]-(2-chloro-5-nitrophenyl)carboxamide [Example 154]”, the IC50 came to 81 nM.
Consider “N-[4-(4-Methylbenzoylamino)phenyl]phenyl]-(2-chloro-5-nitrophenyl)carboxamide [Example 122]”, for which the IC50 was determined as 7.6 nM.
As to “N-[4-(Benzenesulfonylaminophenyl)phenyl]-(2-chloro-5-nitrophenyl)carboxamide [Example 128]”, the IC50 amounted to 35 nM.
Turning to “N-[4-[4-(Pyrrolidin-1-ylamino)phenyl]phenyl]-(2-chloro-5-nitrophenyl)carboxamide [Example 171]”, the IC50 was 48 nM.
